Reference: the supplement of paper PMC5580409

Test system: Plasmodium falciparum 3D7
Experiment: pEC50, asexual blood-stage growth inhibition
Conditions: 72 h
Protocol: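 Held-out test set measured in the Guy lab in 2014 with the same procedure as the primary St. Jude screen. P. falciparum 3D7 blood-stage culture (2% hematocrit, 1% parasitemia) was treated with compound for 72 h at 37 °C, and growth was read by SYBR Green I fluorescence. EC50 came from a four-parameter Hill fit over a 10-point dilution series […].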

Row | SMILES | pEC50
1 | CC(C)c1ccc(/C=C/C(=O)Nc2cccc(Cl)c2)cc1 | < 4.82
2 | Cc1cccc(NCC(O)Cn2c3ccccc3c3ccccc32)c1C (stereo not drawn) | < 4.82
3 | COc1cc(OC)c([N+](=O)[O-])cc1/C=N/NC(=O)C1CC1(c1ccccc1)c1ccccc1 (stereo not drawn) | < 4.82
4 | OC(CNC1CCCC1)COc1ccccc1-c1ccccc1 (stereo not drawn) | < 4.82
5 | O=C(CNCc1ccccc1)c1ccc(Br)cc1 | < 4.82
6 | CN(C)CC(O)Cn1c2ccc(Cl)cc2c2cc(Cl)ccc21 (stereo not drawn) | < 4.82
7 | OC(CNCc1ccc(-c2ccccc2)cc1)c1ccccc1 (stereo not drawn) | < 4.82
8 | Cc1ccc2c(c1)c1c3n2CCCN(Cc2ccccc2F)C3CCC1 (stereo not drawn) | 5.01
9 | Cc1ccc(OCC(O)Cn2c(=N)n(CCN3CCOCC3)c3ccccc32)cc1 (stereo not drawn) | < 4.82
10 | COC(=O)C1=C(C)NC2=C(C(=O)CC(c3ccc(Cl)cc3)C2)C1c1cccc(O)c1 (stereo not drawn) | < 4.82
11 | Cc1cccc(NCC(O)Cn2c3ccc(Br)cc3c3cc(Br)ccc32)c1C (stereo not drawn) | 5.21
12 | O=C(NC1C2CC3CC(C2)CC1C3)c1ccc2c(=O)n3c(nc2c1)CCCCC3 (stereo not drawn) | < 4.82
13 | COCCOC(=O)C1=C(C)NC2=C(C(=O)CC(c3ccc(OC)cc3)C2)C1c1ccc(Cl)cc1 (stereo not drawn) | 6.17
14 | COc1ccc(C2CC(=O)C3=C(C2)NC(=O)CC3c2ccc(Cl)cc2Cl)cc1OC (stereo not drawn) | 5.7
15 | CN(C)c1nc(N(C#N)CCOc2ccccc2)nc(N2CCOCC2)n1 | < 4.82
16 | O=C(Cc1ccc(Br)cc1)Nc1cccc(-c2nc3ccccc3[nH]2)c1 | < 4.82
17 | Oc1ccc(Br)cc1CN1CCN(CC2CC3C=CC2C3)CC1 (stereo not drawn) | 5.39
18 | COc1cc(OC)cc(C(=O)Nc2ccc(-c3nc4cc(C)ccc4[nH]3)cc2)c1 | 5.29
19 | C=CCn1nnnc1NCc1cc(Cl)c(OC)c(OC)c1 | < 4.82
20 | Cc1ccc2c(c1)c1c3n2CCCN(Cc2ccc(Br)cc2)C3CCC1 (stereo not drawn) | < 4.82
21 | COc1ccc(CN2CCCn3c4c(c5cc(C)ccc53)CCCC42)cc1O (stereo not drawn) | < 4.82
22 | OC(CNCc1ccc(OCc2ccccc2)cc1)c1ccccc1 (stereo not drawn) | 5.38
23 | C=CCN1C(=O)CS/C1=C\c1sc2ccccc2[n+]1CC | 5.31
24 | CC(CN1CCCCC1)NC(=O)c1cc(-c2cccnc2)nc2ccc(Cl)cc12 (stereo not drawn) | 5.7
25 | Cc1cccc2c(C(=O)N3CCN(Cc4ccccc4)CC3)cc(-c3cccnc3)nc12 | 5.25
26 | CC(C)(C)NC(=O)c1cn(C2CCCCC2)cc(C(=O)N2CCC(c3ccccc3)CC2)c1=O | < 4.82
27 | CCOC(=O)c1cnc2c(C)cccc2c1Nc1cccc(C(C)=O)c1 | 5.35

Row | SMILES | pEC50
28 | CC1=C(C(=O)OCCOc2ccccc2)C(c2cccc(O)c2)C2=C(CC(c3ccc(Cl)cc3)CC2=O)N1 (stereo not drawn) | < 4.82
29 | CN1CCN(Cc2c(O)ccc3c(=O)c(-c4cccc5ccccc45)c(C(F)(F)F)oc23)CC1 | < 4.82
30 | COc1ccc(CCN2C(=O)N(c3cccc(Cl)c3)C(=O)C2CC(=O)Nc2ccc(F)cc2)cc1 (stereo not drawn) | < 4.82
31 | CCc1ccc(NC(=O)/C=C/c2ccccc2Cl)cc1 | 6.69
32 | CC1CCN(CC(O)Cn2c3ccc(Cl)cc3c3cc(Cl)ccc32)CC1 (stereo not drawn) | < 4.82
33 | CCOc1ccc(NC(=O)/C=C/c2ccccc2Cl)cc1 | 6.34
34 | COc1ccc(Oc2c(C(F)(F)F)oc3c(CN4CCCC(C)C4)c(O)ccc3c2=O)cc1 (stereo not drawn) | < 4.82
35 | COc1ccc(CCNCC(O)Cn2c3ccccc3c3ccccc32)cc1OC (stereo not drawn) | 5.26
36 | CCN(CC)CC(O)Cn1c2ccccc2c2ccccc21 (stereo not drawn) | 5.34
37 | Oc1ccc(Cl)cc1CN1CCCC(N2CCCC2)C1 (stereo not drawn) | < 4.82
38 | Cc1nn(C)c(C(=O)NNC(=O)Nc2ccc([N+](=O)[O-])cc2)c1Cl | 6.93
39 | COc1cccc(-c2cc(C(=O)N3CCN(Cc4ccccc4)CC3)c3ccccc3n2)c1 | < 4.82
40 | O=C(Cc1ccccc1)Nc1ccc(-c2nc3cc(-c4nc5cc(NC(=O)Cc6ccccc6)ccc5[nH]4)ccc3[nH]2)cc1 | < 4.82
41 | O=C(Nc1ccc([N+](=O)[O-])cc1O)C1CC1(c1ccccc1)c1ccccc1 (stereo not drawn) | < 4.82
42 | CCOC(=O)c1cnc2c(OC)cccc2c1Nc1cccc(C(C)=O)c1 | 5.55
43 | CN1CCN(CC(O)Cn2c3ccccc3c3cc(Cl)ccc32)CC1 (stereo not drawn) | < 4.82
44 | Cc1cc(S(=O)(=O)N2CCC(CO)(Cc3cccc(C(F)(F)F)c3)CC2)c(C)cc1Cl | < 4.82
45 | CN(C)Cc1c(O)ccc2c(=O)c(Oc3ccc(C(C)(C)C)cc3)c(C(F)(F)F)oc12 | 5.24
46 | OCCC1CN(Cc2cc(Cl)ccc2O)CCN1Cc1ccccc1 (stereo not drawn) | < 4.82
47 | CCOC(=O)c1c(C)oc2cc(CN(C)C)c(O)cc12 | 5.29
48 | CCOC(=O)c1c(C)oc2ccc(OC)cc12 | < 4.82
49 | CCOC(=O)C1=C(C)NC2=C(C(=O)CC(c3ccc(Cl)cc3)C2)C1c1ccc(OCC)cc1 (stereo not drawn) | < 4.82
50 | OC(CNCCc1ccccc1)COc1ccccc1Cl (stereo not drawn) | 5.3
51 | CCCCn1nnnc1NCc1ccc(OC)c(OC)c1OC | 6.32
52 | O=C(Cc1ccccc1)N1CCN(c2ccc([N+](=O)[O-])c(NC3CC3)c2)CC1 | < 4.82
53 | Cc1ccc(C)c(NCC(O)Cn2c3ccccc3c3ccccc32)c1 (stereo not drawn) | < 4.82
